Data on 25 compounds can be found in ChEMBL document CHEMBL1140592, “Identification of novel, selective and potent Chk2 inhibitors” (Bioorg Med Chem Lett, 2007).

pIC50: −log10 of the molar value.

The target in the test is Serine/threonine-protein kinase Chk2 (Homo sapiens, UniProt O96017). In words: Inhibition of Chk2 kinase.
Serine/threonine-protein kinase Chk2, sequence (O96017 whole entry): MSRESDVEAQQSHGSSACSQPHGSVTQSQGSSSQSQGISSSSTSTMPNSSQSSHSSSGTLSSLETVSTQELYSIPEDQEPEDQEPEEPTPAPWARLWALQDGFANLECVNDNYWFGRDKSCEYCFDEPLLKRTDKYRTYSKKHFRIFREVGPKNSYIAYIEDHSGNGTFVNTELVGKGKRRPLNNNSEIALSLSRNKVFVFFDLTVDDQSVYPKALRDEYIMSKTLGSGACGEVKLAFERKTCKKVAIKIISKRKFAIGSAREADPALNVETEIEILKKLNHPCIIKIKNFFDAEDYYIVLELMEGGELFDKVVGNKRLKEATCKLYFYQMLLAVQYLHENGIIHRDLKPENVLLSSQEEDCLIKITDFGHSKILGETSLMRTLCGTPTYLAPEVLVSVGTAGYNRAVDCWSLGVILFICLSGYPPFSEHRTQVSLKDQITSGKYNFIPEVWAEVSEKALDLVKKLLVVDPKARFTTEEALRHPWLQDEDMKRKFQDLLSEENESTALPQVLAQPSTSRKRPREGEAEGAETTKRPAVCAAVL
In general, pIC50 refers to the IC50 on a negative log10 scale, so that one unit is a factor of ten. A lower pIC50 goes with a large IC50. `CC(C)NC(=N)c1c(O)nsc1Nc1ccc(Cc2ccccc2)cc1` gave a pIC50 of 5.10.

Turning to `N=C(NCC(O)CO)c1c(O)nsc1Nc1ccc(Nc2ccc(Br)cc2)cc1` (stereo not given), the pIC50 is 6.33.

`CC(C)NC(=N)c1c(O)nsc1Nc1ccc(C2CCCCC2)cc1` showed a pIC50 of 4.72.

For the compound `N=C(NCC1CCCCC1)c1c(O)nsc1Nc1ccc(C(=O)c2ccccc2)cc1`, the pIC50 was 5.30.

As to `CC(CO)NC(=N)c1c(O)nsc1Nc1ccc(-n2cccn2)cc1` (stereo not given), the pIC50 is less than 4.40.

In turn, `N=C(NCC1CCCCC1)c1c(O)nsc1Nc1ccc(Nc2ccccc2)cc1` had a pIC50 of 5.74.

With `CC(CO)NC(=N)c1c(O)nsc1Nc1ccc(Nc2ccccc2)cc1` (stereo not given), the negative logarithm of the IC50 (pIC50) is 6.34.

`NC(=NCC1CCCCC1)c1c(Nc2ccc(-n3cccn3)cc2)s[nH]c1=O` had a negative-log IC50 (pIC50) of 4.40.

`CC(C)NC(=N)c1c(O)nsc1Nc1ccc(Oc2ccccc2)cc1` had a negative-log IC50 (pIC50) of 5.64.

For `N=C(NCCCCO)c1c(O)nsc1Nc1ccc(Nc2ccccc2)cc1`, the negative logarithm of the IC50 (pIC50) was 5.92.

`CC(C)NC(=N)c1c(O)nsc1Nc1ccc(Nc2ccccc2)cc1` gave a negative logarithm of the IC50 (pIC50) of 6.38.

With `N=C(NCCCCO)c1c(O)nsc1Nc1ccc(Nc2ccc(Br)cc2)cc1`, the pIC50 was 6.51.

Consider `N=C(NCc1cccc2ccccc12)c1c(O)nsc1Nc1ccc(Nc2ccc(Br)cc2)cc1`, for which the negative logarithm of the IC50 (pIC50) is 6.34.

`CC(C)NC(=N)c1c(O)nsc1Nc1ccc(/N=N/c2ccccc2)cc1` had a pIC50 of 4.96.

As for `N=C(NCC1CCCCC1)c1c(O)nsc1Nc1ccc(Cc2ccccc2)cc1`, the pIC50 is 4.43.

With `N=C(NCC1CCCCC1)c1c(O)nsc1Nc1ccc(Sc2ccccc2)cc1`, the negative-log IC50 (pIC50) was 4.72.

The compound `N=C(NCC1CCCCC1)c1c(O)nsc1Nc1ccc(/N=N/c2ccccc2)cc1` had a negative logarithm of the IC50 (pIC50) of 4.96.

As to `N=C(NCC(O)CO)c1c(O)nsc1Nc1ccc(Nc2ccccc2)cc1` (stereo not given), the pIC50 was 6.05.

In turn, `N=C(NCCO)c1c(O)nsc1Nc1ccc(Nc2ccc(Br)cc2)cc1` showed a pIC50 of 6.66.

Consider `CC(CO)NC(=N)c1c(O)nsc1Nc1ccc(Nc2ccc(Br)cc2)cc1` (stereo not given), for which the pIC50 is 6.85.

With `N=C(NCCO)c1c(O)nsc1Nc1ccc(Nc2ccccc2)cc1`, the negative-log IC50 (pIC50) was 6.00.

Compound `N=C(NCC1CCCCC1)c1c(O)nsc1Nc1ccc(Nc2ccc(Br)cc2)cc1` had a negative-log IC50 (pIC50) of 6.52.

The compound `CCC[C@H]1CC[C@H](c2ccc(Nc3s[nH]c(=O)c3C(N)=NCC(O)CO)cc2)CC1` (stereo not given in full) had a pIC50 of 4.77.

`CC(C)NC(=N)c1c(O)nsc1Nc1ccc(Nc2ccc(Br)cc2)cc1`: the pIC50 is 7.06.

As to `CC(C)NC(=N)c1c(O)nsc1Nc1ccc(S(=O)(=O)c2ccccc2)cc1`, the negative-log IC50 (pIC50) is less than 4.40.
